Columns and labels:
[1] = test system: IFNγ stimulated STAT1 phosphorylation in CD14+ monocytes; assay: Cellular JAK potency assay: inhibition of IFNγ-induced pSTAT1; assay type: cell-based; conditions: Monocyte; CD14+ monocytes from human whole blood; read-out: pIC50, inhibition of IFNγ-induced pSTAT1 (converted)
Description: The potency of test compounds for inhibition of interferon gamma (IFNγ) stimulated STAT1 phosphorylation was measured in CD14-positive (CD14+) monocytes derived from human whole blood (Stanford Blood Center) using flow cytometry. Because IFNγ signals through JAK, this assay provides a measure of JAK cellular potency. Monocytes were identified using a fluorescein isothiocyanate (FITC) conjugated anti-CD14 antibody (Clone RM052, Beckman Coulter), and an Alexa Fluor 647 conjugated anti-pSTAT1 antibody ([…], Clone 4a, BD Biosciences) was used to detect STAT1 phosphorylation. Human peripheral blood mononuclear cells (PBMC) were isolated from human whole blood of healthy donors using a ficoll gradient. […] Cells were washed twice with FACS buffer, and then re-suspended in 1:10 anti-pSTAT1 Alexa Fluor 647:FACS buffer (100 μL) for 30 min at RT in the dark, washed twice in FACS buffer, and analyzed using a MACSQuant flow cytometer (Miltenyi). To determine the inhibitory potency of the test compound, the median fluorescent intensity (MFI) of pSTAT1 was measured in CD14+ monocytes. IC50 values were determined from analysis of the inhibition curves of MFI vs compound concentration. Data are expressed as pIC50 (negative decadic logarithm IC50) values.

[2] = test system: IFNγ secretion in mixed lymphocyte reaction; assay: Inhibition of IFNγ secretion in a mixed lymphocyte reaction assay; assay type: cell-based, human
Description: The mixed lymphocyte reaction assay is an in-vitro assay that mimics transplant rejection. T cells from one donor are cultured with allogeneic dendritic cells from another donor. This reaction induces a cellular immune response such as IFNγ secretion. CD14+ monocytes were isolated from human whole blood (Stanford blood center) of donor A using a ficoll gradient and magnetic seperation (CD14 microbeads, Miltenyi). […] Cells were harvested, washed with media, re-suspended to 400,000 cells/ml in media and plated at 10,000 cells/well/25 μl. CD4+ T cells were freshly isolated from human whole blood (Stanford blood center) of donor B using a ficoll gradient and magnetic separation (CD4+ T cell isolation kit, Miltenyi). T cells were re-susepended to 4,000,000 cells/ml in RPMI (Life Technologies) supplemented with 10% Fetal Bovine Serum (FBS, Life Technologies), 2 mM Glutamax (Life Technologies), 25 mM HEPES (Life Technologies) and 1× Pen/Strep (Life Technologies). CD4+ T cells were mixed with the dendritic cells at 100,000 cells/well/25 μl. Cells were treated with test compounds (50 μl at 20 μM, 2 μM and/or 0.2 μM) to a final concentration of 10 μM, 1 μM and/or 0.1 μM. Compounds were diluted in dimethyl sulfoxide (DMSO, Sigma) to a final concentration of 0.1%. DMSO at 0.1% was used as a vehicle control. Cells were maintained for 5 days in a 37° C., 5% CO2 humidified incubator. On day 5, supernatants were collected and measured for interferon gamma (INFγ) using enzyme linked immunosorbent assay (ELISA). Percent inhibition was determined by compound inhibitory potency against IFNγ secretion compared to vehicle treated cells. Data is the average from 4 donors.

Lung S9 metabolism = assay type: in vitro ADME, human
Description: The time 0, 15, 30, and 60 minute samples were analyzed for parent compound by high resolution LC-MS/MS. Lung S9 fractions from human (lot 1410245) were purchased from XenoTech LLC (Lenexa, Kans.). NADPH (Sigma Aldrich, N1630) and 3-phosphoadenosine 5-phosphosulfate (PAPS) (Sigma Aldrich, A1651) were purchased from Sigma Aldrich (St. Louis, Mo.). Acetonitrile and water were obtained from VWR (Radnor, Pa.) and were of HPLC grade or better. Raloxifene and formic acid was purchased from Sigma Aldrich (St. Louis, Mo.). Lung S9 incubations were performed in a water bath at 37° C. in a 96-well polypropylene plate. […] Louis, Mo.), 3 mM magnesium chloride (Sigma Aldrich, M1028) and in the presence of 100 μM PAPS (Sigma-Aldrich, St. […] Incubation volumes consisted of 400 μL and time points were taken at 0, 15, 30, and 60 minutes by the removal of a 70 μL aliquot and dilution into 140 μL acetonitrile (0% formic acid). All samples were centrifuged at 2250 g for 10 minutes at 5° C. Supernatant […] was taken from the centrifuged samples and diluted into 100 μL HPLC water containing internal standard. The samples were run on a Dionex Ultimate 3000 Auto sampler and analyzed using a Thermo Q-Exactive High Resolution Mass Spectrometer (Thermo, Waltham, Mass.) in Full Scan mode in conjunction with an Atlantis T3 column 3 μM-2.1×50 mm (Waters Inc., 186003717). Mobile Phase A consisted of Water+0.2% formic acid and Mobile Phase B consisted of acetonitrile +0.2% formic acid. Peak integration was accomplished using Gubbs GMSU software (Gubbs Inc., Alpharetta, Ga.). For each sample, peak area ratios were calculated by dividing the analyte peak area by the internal standard peak area. For each incubation, the peak area ratios of the analytes in each t0 was set to 100%, and the peak areas ratios from the 60 minute samples were converted to percentages remaining relative to the corresponding t0. Determination of sulfate metabolite formation was made qualitatively by observation of early-eluting peak in the parent ion channel which, based on historical internal data, corresponded to the O-sulfate metabolite of each parent compound.

`CCc1cc(O)ccc1-c1ccc2c(-c3nc4c([nH]3)CN(C(C)C)[C@H](C(=O)N3CC(N(C)C)C3)C4)n[nH]c2c1` [Compound 1, (S)-(3-(dimethylamino)azetidin-1-yl)(2-(6-(2-ethyl-4-hydroxyphenyl)-1H-indazol-3-yl)-5-isopropyl-4,5,6,7-tetrahydro-3H-imidazo[4,5-c]pyridin-6-yl)methanone] gave an IC50 [1] of 0.0316 µM, an inhibition at 0.1 µM ([2]; Homo sapiens, Lymphocyte, 120 h, 0.1 μM, 5 days, 4 donors) of 43% and an inhibition at 10 µM ([2]; Homo sapiens, Lymphocyte, 120 h, 10 μM, 5 days, 4 donors) of 99%. For the same compound, the inhibition at 1 µM ([2]; Homo sapiens, Lymphocyte, 120 h, printed "at μM" (middle concentration, 1 μM in the method), 5 days, 4 donors) was 76%, the “inhibition of IFNγ secretion (in words)” value ([2]; mixed lymphocyte reaction) was “effectively inhibit IFNγ secretion” and the “Compound Remaining at 60 min (%)” value (Lung S9 metabolism; human lung S9, 1 μM compound, 1 mg/mL S9 protein, 60 min) was 81%. For the same compound, the “Sulfate Appearance” value (Lung S9 metabolism; human lung S9, qualitative O-sulfate metabolite peak) was “Yes” and the microsomal CLint at 1 µM (Lung S9 metabolism; human lung S9 fraction, pH 7.4, human lung S9, 1 μM compound, 1 mg/mL S9 protein, NADPH and PAPS, read-out: Clearance) was 3.5 µL/min/mg.
